Measurements reported in patent publication US5514821A, “Ring-labeled retinoids and intermediates, and methods for their synthesis and use” (Ligand Pharmaceuticals Incorporated, priority 1994, dated 1996).

Key:
RARs and RXRs [1] = experiment: binding to baculovirus-derived RARs and RXRs (overall finding in words); details: RARα,β,γ and RXRα,β,γ; for binding to RARs and RXRs (in words): saturation binding
Text: Exp. Stat. Bull., No. 155 (1987).
[…]. […] […].

RARs and RXRs [2] = details: Heyman et al., Cell, 68:397 (1992); cited from earlier work

Row | SMILES | activity on the retinoid receptors (in words, per Table 1) (RARs and RXRs [1]) | binding to RARs and RXRs (in words) (RARs and RXRs [1]; listed as 9-cis retinoic acid) | binding to RARs and RXRs (in words) (RARs and RXRs [1]; listed as 9-cis-retinoic acid) | binding to and modulating gene expression via the RARs and RXRs (RARs and RXRs [2]) | binding to RARs and RXRs (in words) (RARs and RXRs [1])
1 | CC1=C(/C=C/C(C)=C\C=C\C(C)=C\C(=O)O)C(C)(C)CCC1 [9-cis RA, 9-cis retinoic acid] | active on all six known retinoid receptors | binds to the RARs and RXRs with high affinity in a saturable and specific manner | effectively binds to all six receptors | capable of binding to and modulating gene expression via the RARs and RXRs | –
2 | CC1=C(/C=C/C(C)=C/C=C/C(C)=C/C(=O)O)C(C)(C)CCC1 [ATRA, all-trans retinoic acid] | only active on RARα,β,γ | – | – | – | only binds to the RARs
